In article PMC9841525, “Chemical Blockage of the Mitochondrial Rhomboid Protease PARL by Novel Ketoamide Inhibitors Reveals Its Role in PINK1/Parkin-Dependent Mitophagy” (Journal of Medicinal Chemistry, 2022):
“Also recorded” adds a separate entry of the source. Where a SMILES comes first, the peptide text is derived from it. The star is where a group is joined. AMC = Cc1cc(=O)oc2cc(N*)ccc12

Key:
PARL = molecular target: T1, PARL (Homo sapiens, UniProt Q9H300); assay: In vitro assay for PARL activity, cleavage of AMC substrates by liposome-embedded PARL; type: biochemical; design: hexahistidine tag (C); made in house; host or cells: continuous-exchange cell-free expression in bacterial lysates with T7 polymerase (CUBE biotech), into liposomes; conditions: mature PARL in liposomes, S277A catalytic mutant as control
T1 sequence (Q9H300 53-379): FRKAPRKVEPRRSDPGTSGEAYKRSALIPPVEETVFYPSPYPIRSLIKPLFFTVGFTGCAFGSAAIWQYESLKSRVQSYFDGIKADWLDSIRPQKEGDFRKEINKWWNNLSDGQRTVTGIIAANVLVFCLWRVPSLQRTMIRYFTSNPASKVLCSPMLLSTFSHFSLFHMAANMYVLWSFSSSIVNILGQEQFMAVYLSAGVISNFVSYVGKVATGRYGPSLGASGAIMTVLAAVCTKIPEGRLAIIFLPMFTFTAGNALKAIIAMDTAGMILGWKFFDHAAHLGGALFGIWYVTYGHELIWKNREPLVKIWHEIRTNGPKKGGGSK
Procedure: Liposome preparation and cell-free protein expression of PARL were carried out essentially as described previously.[27] Liposomes resembling the lipid composition of the IMM were prepared by mixing 40% DOPC (1,2-dioleoyl-sn-glycero-3-phosphocholine), 33.8% DOPE (1,2-dioleoyl-sn-glycero-3-phosphoethanolamine), 18% CL(18:1)4 (1′,3′-bis[1,2-dioleyl-sn-glycero-3-phospho]-glycerol), 3% DOPS (1,2-dioleoyl-sn-glycero-3-phospho-L-serine), 5% soy-PI (L-α-phosphatidylinositol), and 0.2% rhodamine-PE (1,2-dioleoyl-sn-glycero-3-phosphoethanolamine-N-(lissamine rhodamine B sulfonyl)) in chloroform, followed by the evaporation of chloroform by a stream of nitrogen gas and drying in a vacuum chamber (Binder) for 1 h. […] Concentration of PARL was determined by absorption at 280 nm.
The PARL activity assay in vitro was carried out in 5 mM Tris, 5 mM Mg(OAc)2, 25 μM Zn(OAc)2, 0.1 μg/μL BSA, 30% DMSO, pH 8.0 using PARL in liposomes at 0.05 mg/mL. Compound 3 and 4 were used at 5 μM final concentration based on quantitative amino acid analysis. […] The cleavage reaction was carried out at 37 °C in 96-well black HTS plates (Greiner Bio-One) in a plate reader (Tecan Infinite M1000) with excitation and emission wavelengths set to 355 and 450 nm, respectively. Data were evaluated using Excel (Microsoft) and GraphPad Prism 9 (GraphPad Software, Inc.).

HEK293T cells = assay: JC-1 mitochondrial membrane potential assay; type: cell-based, human; conditions: 5 µM compound 5 or CCCP, at least three hours, compared to DMSO
Procedure: Staining of cells for the determination of mitochondrial membrane potential was carried out with the JC-1 mitochondrial staining kit (Sigma-Aldrich) according to the kit’s instructions; stained cells were immediately taken to live cell imaging.
(§1) For fixation, cells were incubated for 15 min with 4% formaldehyde (16% formaldehyde diluted in PBS, Thermo Scientific) and washed in PBS. The cover glasses were mounted with Fluoromount-G (Southern Biotech) on microscope slides. All microscopy was performed on an LSM 780 system (Carl Zeiss) with a Plan-APOCHROMAT 63× 1.4NA oil objective (Carl Zeiss) and pinhole settings of 1 AU with the Zeiss ZEN 2010 software. Image processing and analysis was performed using ImageJ (http://rsb.info.nih.gov/ij/). […] Parkin recruitment events to the mitochondria were counted by hand throughout each z-stack and cell. […] JC-1 images were handled as summed intensity z-stack projections, as well as subjected to flatfield correction and subtraction of background before measuring the fluorescence levels normalized to the number of cell nuclei. The fluorescence intensity ratio between the red and green signal was calculated and compared to DMSO as a ratio of 1. Data were evaluated using Excel and GraphPad Prism 6.

Parkin [1] = assay: Parkin recruitment to mitochondria and mitochondrial morphology, fluorescence microscopy; type: cell-based, human; conditions: HEK293 T-REx PINK1 cells, 3 h
Procedure: (§2) Inducible stable Flp-In HEK293 T-REx cells expressing PINK1 were described previously.[33] HEK293 T-REx PINK1 and HEK293T cells were grown in DMEM (Gibco) supplemented with 10% (v/v) fetal bovine serum (ThermoFisher), 1% (v/v) GlutaMAX (Gibco), 1% (v/v) sodium pyruvate (Gibco), 125 μg/mL hygromycin (Invitrogen), and 10 μg/mL blasticidin (Gibco) or DMEM supplemented with 10% (v/v) fetal bovine serum, respectively, at 37 °C in 5% (v/v) CO2. For microscopy, cells were seeded on poly-L-lysine (Sigma)-coated slides. Transient plasmid transfections were performed using 25 kDa linear polyethylenimine (Polysciences). Plasmid (100 ng) encoding HA-Parkin-IRES-GFP, mito-mCherry or Parkin-mEGFP, or 500 ng plasmid encoding PGAM5-FLAG were used per 6-well. Total transfected DNA was 2 μg/well. For siRNA transfection, 2 × 10^5 cells were seeded per 6-well and on the next day transfected with 20 nM siRNA-oligonucleotide using lipofectamine RNAiMAX (ThermoFisher). Cells were analyzed 27 h post-transfection or five days post-siRNA-transfection. HEK293 T-REx PINK1 cells were induced with 0.3 μg/mL doxycycline for 24 h before further processing. Hoechst staining (1 μg/mL) was done immediately before adding treatment to the cells. Treatments were administered for the indicated times before processing; CCCP (Sigma) was always used as 10 μM for 3 h and Antimycin A (Sigma) as 30 μM for 3 h.
as §1, with “slides.” for “slides. All microscopy was performed on an LSM 780 system (Carl Zeiss) with a Plan-APOCHROMAT 63× 1.4NA oil objective (Carl Zeiss) and pinhole settings of 1 AU with the Zeiss ZEN 2010 software. Image processing and analysis was performed using ImageJ (http://rsb.info.nih.gov/ij/).”

Parkin [2] = assay: Parkin recruitment to mitochondria, subcellular fractionation and immunoblot; type: cell-based, human; conditions: HEK293 T-REx PINK1 cells, HA-Parkin-IRES-GFP; 5 μM compound 5, CCCP 10 μM or Antimycin A 30 μM
Procedure: as §2
Unless mentioned otherwise, all steps were performed at 4 °C. For subcellular fractionation to separate cellular content into cytosolic and mitochondrial fractions, cells were washed with PBS, harvested in PBS-EDTA (1 mM EDTA, 0.2 g/L D-glucose), and centrifuged at 500 × g for 5 min. […]
For immunoblot analysis in other cases, cells were either processed as described above or washed with PBS and directly lysed with Tris-glycine SDS-PAGE sample buffer and heated for 15 min at 65 °C. […] For quantification, ImageJ was used (http://rsb.info.nih.gov/ij/). […]

GlpG = molecular target: T2, GlpG (Escherichia coli, UniProt P09391); type: biochemical, E. coli
T2 construct: Full-length GlpG with C-terminal His-tag was overexpressed from pET25b + in E. coli C43(DE3); His-tag (C); made in house; host or cells: E. coli C43(DE3)
T2 sequence (P09391 whole entry): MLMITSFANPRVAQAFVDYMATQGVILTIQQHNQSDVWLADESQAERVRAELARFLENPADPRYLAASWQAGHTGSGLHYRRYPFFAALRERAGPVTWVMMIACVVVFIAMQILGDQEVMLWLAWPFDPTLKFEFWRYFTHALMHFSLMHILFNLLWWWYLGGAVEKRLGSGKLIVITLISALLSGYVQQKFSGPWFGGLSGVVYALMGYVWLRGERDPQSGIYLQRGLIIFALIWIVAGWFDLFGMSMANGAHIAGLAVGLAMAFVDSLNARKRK
Procedure: Emission spectra of aminomethyl coumarin and cleavage of compound 1 were monitored in 50 mM potassium phosphate pH 7.4, 150 mM NaCl, 20% (w/v) glycerol, 0.05% (w/v) PEG8000, 0.05% (w/v) DDM, 10% (w/v) DMSO. The compounds (1 mM) were incubated with 10 μM GlpG WT or S201T, 1 μM elastase, or buffer, respectively, as indicated in the legend of Figure 1A at 37 °C for 1 h. Samples were diluted 8-fold with buffer, and emission spectra were measured in 96-well black HTS plates (Greiner Bio-One) by a plate reader (Tecan Infinite M1000) using an excitation wavelength of 355 nm. Data were evaluated using Excel (Microsoft) and GraphPad Prism 9 (GraphPad Software, Inc.). The data shown are representative of three independent experiments.
Activity and inhibition assays of GlpG shown in Figure 1B–D were carried out in 50 mM potassium phosphate pH 7.4, 150 mM NaCl, 20% (v/v) glycerol, 0.05% (w/v) PEG8000, 0.05% (w/v) DDM, and 5% (v/v) DMSO. […] All activity measurements were performed at 37 °C in 96-well black HTS plates (Greiner Bio-One) and fluorescence was monitored in a plate reader (Tecan Infinite M1000) with excitation and emission wavelengths set to 355 and 450 nm, respectively, for compound 1, and 335 and 493 nm, respectively, for the transmembrane substrate KSp96. Data were evaluated using Excel (Microsoft) and GraphPad Prism 9 (GraphPad Software, Inc.).
Activity measurements of GlpG with varying DDM concentrations were obtained in 20 mM HEPES (pH 7.4), 150 mM NaCl using 100 nM GlpG, and DDM at the concentration indicated in the graphs. Buffer for measurements with compound 1 contained additionally 5% (v/v) DMSO. Compound 1 and transmembrane substrate were used at 10 μM final concentration. Activity measurements were performed at 37 °C in 96-well black HTS plates (Greiner Bio-One), and fluorescence was monitored in a plate reader (Tecan Infinite M1000) with excitation and emission wavelengths set to 355 and 450 nm for compound 1 and 335 and 493 nm for the transmembrane substrate, respectively. Data were evaluated using Excel (Microsoft) and GraphPad Prism 9 (GraphPad Software, Inc.).

[3] = Solubility of fluorogenic substrates in assay buffer (qualitative)

CC(=O)N[C@@H](CCCNC(=N)N)C(=O)N[C@@H](CCCNC(=N)N)C(=O)N[C@@H](CCCNC(=N)N)C(=O)N[C@@H](C)C(=O)N[C@H](C(=O)N[C@@H](Cc1ccccc1)C(=O)N[C@@H](CC(C)C)C(=O)N[C@@H](C)C(=O)Nc1ccc2c(C)cc(=O)oc2c1)C(C)C [compound 4, AcRRRAVFLA-4mc] (Ac-RRRAVFLA-{AMC})
Cleavage of substrate by liposome-embedded PARL (PARL): are cleaved by liposome-embedded PARL but not its catalytic mutant

CC(=O)N[C@@H](C)C(=O)N[C@H](C(=O)N[C@@H](Cc1ccccc1)C(=O)N[C@@H](CC(C)C)C(=O)N[C@@H](C)C(=O)Nc1ccc2c(C)cc(=O)oc2c1)C(C)C [compound 3, AcAVFLA-4mc] (Ac-AVFLA-{AMC})
Cleavage of substrate by liposome-embedded PARL (PARL): are cleaved by liposome-embedded PARL but not its catalytic mutant

N#CC(C#N)=NNc1cccc(Cl)c1 [CCCP, carbonyl cyanide m-chlorophenyl hydrazone]
Effect on mitochondrial membrane potential (JC-1 aggregate to monomer ratio) (HEK293T cells): lowers the membrane potential
Mitochondrial morphology (Parkin [1]): severe rounding and clustering
Parkin recruitment to the mitochondrial fraction (Parkin [2]): significant recruitment of Parkin to the mitochondrial fraction

CC(=O)N[C@@H](CCCNC(=N)N)C(=O)N[C@H](C(=O)N[C@@H](CCCNC(=N)N)C(=O)N[C@@H](Cc1c[nH]cn1)C(=O)N[C@@H](C)C(=O)Nc1ccc2c(C)cc(=O)oc2c1)C(C)C [compound 1, AcRVRHA-4mc] (Ac-RVRHA-{AMC})
Apparent Michaelis constant for substrate (GlpG; GlpG in DDM micelle environment): approximately 500 μM
Michaelis constant KM for substrate (GlpG; GlpG, detergent): about half
Cleavage of substrate by GlpG (GlpG; detergent micelles and/or DIBMA lipid nanodiscs): cleaved by GlpG with similar efficiency in lipid nanodiscs and in detergent micelles; also recorded: can be cleaved by active GlpG embedded in polymer nanodiscs
Solubility of substrate [3]: sufficiently soluble to be useable at hundreds of micromolar concentrations
